According to PMC12040169 (PLOS Biology, 2025):

Assay: in vitro
Settings: human, hela cells, % viability

SMILES	viability at 28.5 h, 10 µM
O=C(CNS(=O)(=O)Cc1ccccc1[N+](=O)[O-])N1CCOCC1 [CBK042220]	82.7%
O=C(CNS(=O)(=O)c1ccc(Oc2ccccc2)cc1)Nc1ccc(F)cc1 [CBK042229]	104%
Cc1ccc(S(=O)(=O)Nc2sccc2C(=O)O)cc1[N+](=O)[O-] [CBK042258]	102%
Cc1ccc(S(=O)(=O)Nc2sccc2C(=O)N2CCN(C)CC2)cc1 [CBK042264]	89.3%
CN1CCN(C(=O)c2ccsc2NS(=O)(=O)c2ccc(Oc3ccccc3)cc2)CC1 [CBK042277]	87%
O=C(c1ccsc1NS(=O)(=O)c1cc(Cl)sc1Cl)N1CCOCC1 [CBK042288]	92.5%
Cc1ccc(S(=O)(=O)Nc2sccc2C(=O)Nc2ccc(F)cc2)cc1 [CBK042302]	98.5%
O=C(Nc1ccc(F)cc1)c1ccsc1NS(=O)(=O)Cc1ccccc1[N+](=O)[O-] [CBK042313]	91.7%
CCN(CC)C(=O)c1ccsc1NS(=O)(=O)c1cccc2cccnc12 [CBK042317]	87.1%
CCN(CC)C(=O)c1ccsc1NS(=O)(=O)c1ccc(Br)cc1 [CBK042318]	93.2%
CCCc1ccc(S(=O)(=O)Nc2ccccc2C(=O)O)cc1 [CBK042366]	72.4%
Cc1noc(C)c1S(=O)(=O)Nc1ccccc1C(=O)O [CBK042371]	89.8%
O=C(O)c1ccccc1NS(=O)(=O)Cc1ccccc1[N+](=O)[O-] [CBK042373]	91.9%
Cc1ccc(S(=O)(=O)Nc2ccccc2C(=O)O)cc1[N+](=O)[O-] [CBK042374]	84.5%
CSc1cccc(NC(=O)N2CCN(C(=O)C3CCCO3)CC2)c1 (centres unmarked) [CBK043283]	100%
O=C(c1ccccc1NS(=O)(=O)c1ccc(Br)cc1)N1CCOCC1 [CBK043340]	100%
COc1cc(NC(=O)NCCc2cccs2)cc(OC)c1OC [CBK043347]	94.6%
O=C(c1ccccc1NS(=O)(=O)c1ccc(C(F)(F)F)cc1[N+](=O)[O-])N1CCOCC1 [CBK043353]	84.4%
CCC(C)(C)c1ccc(S(=O)(=O)N(C)CCC#N)cc1 [CBK043395]	118%
COC(=O)NC(=O)N1CCN(c2c(Cl)cncc2Cl)CC1 [CBK043398]	108%
CCOC(=O)CN(Cc1ccccc1)S(=O)(=O)c1ccc(C(C)C)cc1 [CBK043404]	103%
CCCN(CCC#N)S(=O)(=O)c1ccc(C(C)C)cc1 [CBK043453]	94.4%
Cc1cc(S(=O)(=O)N(CCC#N)Cc2ccccc2)c(C)cc1Cl [CBK043461]	90.8%

SMILES	viability at 28.5 h, 10 µM
CC(C)c1ccc(S(=O)(=O)NCc2c(F)ccc(Cl)c2F)cc1 [CBK043484]	88.4%
CNC(=O)c1ccc(NS(=O)(=O)c2ccc(OC(F)(F)F)cc2)cc1 [CBK043495]	96.7%
O=S(=O)(Nc1ccccc1O)c1ccc(OC(F)(F)F)cc1 [CBK043512]	80.2%
CCC(O)CNS(=O)(=O)c1ccc(OC(F)(F)F)cc1 (centres unmarked) [CBK043557]	97.9%
Cc1ccc(NS(=O)(=O)c2ccc(OC(F)(F)F)cc2)nc1 [CBK043577]	95.8%
O=S(=O)(c1ccc(Br)s1)N1CCC(Cc2ccccc2)CC1 [CBK043580]	89.7%
CC(C)c1ccc(S(=O)(=O)N(C)Cc2cccnc2)cc1 [CBK043582]	108%
CC(NS(=O)(=O)c1cccs1)c1ccccc1 (centres unmarked) [CBK043601]	114%
CC(=O)c1cccc(NS(=O)(=O)c2ccc(OC(F)(F)F)cc2)c1 [CBK043606]	88.5%
Cc1cc(S(=O)(=O)N(CCC#N)c2ccccc2)c(C)cc1Cl [CBK043618]	85.7%
O=S(=O)(CCc1ccccn1)N1CCC(Cc2ccccc2)CC1 [CBK043632]	107%
Fc1ccc2c(ccn2CCCN2CCN(c3ccncc3)CC2)c1 [CBK043645G]	89.4%
CCOC(=O)CN1CCN(C(=O)Nc2ccccc2OC(F)(F)F)CC1 [CBK043656]	97%
CCCNC(=O)NCCc1cccs1 [CBK043675]	102%
N#CC(NS(=O)(=O)c1ccc(OC(F)(F)F)cc1)c1ccccc1 (centres unmarked) [CBK043714]	97.6%
CC(=O)NCCNS(=O)(=O)c1ccc(C(C)C)cc1 [CBK043726]	92.5%
CCC(C)(C)c1ccc(S(=O)(=O)Nc2n[nH]cc2Br)cc1 [CBK043734]	85%
N#Cc1ccc(NC(=O)NCCc2cccs2)cc1 [CBK043736]	115%
O=S(=O)(NCc1ccc(C(F)(F)F)cc1)c1cccs1 [CBK043744]	94.5%
CCOC(=O)C1CCN(S(=O)(=O)c2ccc(NC(C)=O)c(Cl)c2)CC1 [CBK043748]	93.5%
O=C(NCCc1cccs1)Nc1ccc(Cl)c(C(F)(F)F)c1 [CBK043775]	97.6%
CCOC(=O)CN1CCN(S(=O)(=O)c2ccc(F)c(Cl)c2)CC1 [CBK043782]	89.3%
O=S(=O)(NCc1ccc(F)cc1Cl)c1ccc(Cl)c(Cl)c1 [CBK043785]	91%

SMILES	viability at 28.5 h, 10 µM
Cc1cc(S(=O)(=O)N(C)CCC#N)c(C)cc1Cl [CBK043787]	111%
O=S(=O)(c1ccc(Cl)c(Cl)c1)N1CCOCC1 [CBK043794]	90.7%
CCN(Cc1ccncc1)S(=O)(=O)c1ccc(Cl)c(Cl)c1 [CBK043818]	96.2%
COCCN(C)S(=O)(=O)c1cc(C)c(Cl)cc1C [CBK043867]	105%
CCc1cc(Br)ccc1S(=O)(=O)Nc1ccccc1O [CBK043877]	92%
O=S(=O)(Nc1cccc2cccnc12)c1cccs1 [CBK043904]	60.8%
CC(C)c1ccccc1NC(=O)NCCc1cccs1 [CBK043938]	97.9%
Cc1cccc(C(C)(C)C)c1NC(=O)N1CCC(Cc2ccccc2)CC1 [CBK043962]	112%
O=C(Nc1ccc2ccccc2c1)N1CCN(C(=O)C2CCCO2)CC1 (centres unmarked) [CBK044043]	96.6%
CC(=O)Nc1ccc(S(=O)(=O)Nc2ccc(CC#N)cc2)cc1Cl [CBK044058]	87.8%
O=S(=O)(NCCc1cccc(C(F)(F)F)c1)c1cccs1 [CBK044068]	91.1%
CC1CN(C2CCN(S(=O)(=O)c3cccs3)CC2)C(=O)O1 (centres unmarked) [CBK044072]	112%
COC(=O)c1cc(NC(=O)NCCC2=CCCCC2)cc(C(=O)OC)c1 [CBK044120]	90.9%
CCC(C)(C)c1ccc(S(=O)(=O)NCCCN2CCCC2)cc1 [CBK044126]	95.8%
Cc1ccc(NC(=O)NCCC2=CCCCC2)cc1Cl [CBK044135]	110%
CCOC(=O)CN1CCN(C(=O)Nc2ccccc2Br)CC1 [CBK044156]	103%
CCOC(=O)NC(=O)N1CCC(N2C(=O)OCC2(C)C)CC1 [CBK044179]	90.5%
O=C(NCCC1=CCCCC1)Nc1ccc2ccccc2c1 [CBK044195]	104%
Cc1cc(S(=O)(=O)NCC(=O)OC(C)C)c(C)cc1Cl [CBK044196]	101%
Cc1cc(C(=O)N2CCC(N3C(=O)OCC3(C)C)CC2)n(C(C)(C)C)n1 [CBK044233]	94.4%
Cn1nc(C(C)(C)C)cc1C(=O)N1CCC(N2C(=O)OCC2(C)C)CC1 [CBK044234]	81.5%
CC(=O)Nc1ccc(S(=O)(=O)NCCC#N)cc1Cl [CBK044272]	95.2%
O=S(=O)(c1ccc(OC(F)(F)F)cc1)N1CCc2ccccc21 [CBK044279]	96.7%

SMILES	viability at 28.5 h, 10 µM
CCCCCc1ccc(S(=O)(=O)N2CCN(C(=O)C3CCCO3)CC2)cc1 (centres unmarked) [CBK044329]	101%
CCOC(=O)CN1CCN(S(=O)(=O)c2ccc(F)c(F)c2F)CC1 [CBK044345]	92.4%
N#Cc1ccccc1NC(=O)NCCC1=CCCCC1 [CBK044365]	95.1%
O=[N+]([O-])c1cccc(NS(=O)(=O)c2ccc(Cl)c(Cl)c2)c1 [CBK044396]	78.5%
CC(C)c1ccc(S(=O)(=O)NC(C#N)c2ccccc2)cc1 (centres unmarked) [CBK044403]	101%
O=S(=O)(NCCc1ccncc1)c1ccc(Cl)c(Cl)c1 [CBK044438]	97.9%
CC(C)c1ccc(S(=O)(=O)Nc2ccc3[nH]c(C(F)(F)F)nc3c2)cc1 [CBK044470]	90.3%
O=S(=O)(Nc1cccc2ncccc12)c1ccc(OC(F)(F)F)cc1 [CBK044490]	112%
O=S(=O)(c1cccs1)N1CCc2ccccc2C1 [CBK044531]	113%
O=C(NCCc1cccs1)Nc1ccc(F)c(F)c1F [CBK044543]	96.1%
CC(C)c1ccc(S(=O)(=O)Nc2ccc(Br)c(F)c2)cc1 [CBK044556]	100%
CC(C)c1ccc(S(=O)(=O)Nc2ccc(OC(F)F)cc2)cc1 [CBK044565]	87.8%
CCOC(=O)CN1CCN(S(=O)(=O)c2cc(Cl)ccc2Cl)CC1 [CBK044628]	91.1%
Cc1cc(C)nc(NS(=O)(=O)c2ccc(OC(F)(F)F)cc2)c1 [CBK044711]	90.7%
CC(C)c1ccc(S(=O)(=O)NCCC#N)cc1 [CBK044722]	105%
CCc1cc(Br)ccc1S(=O)(=O)NCCC#N [CBK044760]	91.9%
O=S(=O)(Nc1cccc(Cl)c1)c1ccc(OC(F)(F)F)cc1 [CBK044769]	109%
CC(=O)Nc1ccc(S(=O)(=O)N(C)c2ccccn2)cc1Cl [CBK044789]	94.5%
CCC(C)(C)c1ccc(S(=O)(=O)NCc2ccc(C(F)(F)F)cc2)cc1 [CBK044820]	107%
O=C(NCCc1cccs1)Nc1ccc(Cl)cc1C(F)(F)F [CBK044825]	86.1%

Same assay, conditions: human, hela cells, % viability, bulk resorufin, single well

SMILES	viability at 28.5 h, 10 µM
O=C(Nc1ccccc1C(F)(F)F)N1CCC2(CC1)OCCO2 [CBK043655]	94.1%
COC(=O)c1cccc(NC(=O)N2CCC3(CC2)OCCO3)c1 [CBK043713]	91.1%
CC(C)(C)c1ccccc1NC(=O)N1CCC2(CC1)OCCO2 [CBK043720]	91.3%
